In patent publication US11484511B2, “Pharmaceutical composition comprising THA as effective ingredient for treatment of prostate cancer” (KOREA UNITED PHARM. INC., priority 2018, dated 2022):
Entries after “also recorded” stand apart in the source; their conditions may differ.

Columns and labels:
Assay type in all cases: cell-based
PC3 cells [1] = assay: Cleaved caspase-3 (CC3) expression by immunochemical analysis; conditions: for induction of apoptosis: 30 μM THA or 5 nM BI2536, 48 hours
Procedure: (§1) Sodium dodecyl sulfate-polyacrylamide gel electrophoresis (SDS-PAGE) was performed using a gel electrophoresis apparatus (Mighty Small SE250, Hoefer Scientific Instruments, San Francisco). After a cell lysate fraction was diluted in a sample dilution buffer solution [63 mM Tris (pH 6.8), 10% glycerol, 2% SDS, 0.0013% bromophenol blue, and 5% β-mercaptoethanol], electrophoresis was performed in an electrode buffer solution (15 g of Tris, 72 g of glycerin, and 5 g of SDS were contained in a 1 L solution) using 8 to 12% gel. Proteins were electrophoretically transferred from the gel to a nitrocellulose membrane at 190 mAmps for 70 minutes in a transfer buffer solution (25 mM Tris, 192 mM glycerin, and 20% v/v methanol (pH 8.3)) using a transfer electrophoresis apparatus. After a primary antibody was reacted with the nitrocellulose membrane, a secondary antibody was reacted with horseradish peroxidase-conjugated goat anti-rabbit IgG and horseradish peroxidase-conjugated goat anti-mouse IgG for 6 hours, and color was developed using an ECL chemiluminescence system (Amersham, Gaithersberg, Mass.).
(§2) Further, the degree of apoptosis was observed by confirming the changes in expression of cleaved caspase-3 (CC3) which is an active-type caspase-3 during apoptosis, and first, the C4-2 and PC3 cells cultured by the method in Example 1-2 were plated onto a 6-well plate, and then cultured during 12 hr. And then the cells were treated with 30 μM THA or 5 nM BI2536 for 48 hours. Thereafter, the changes in expression of cleaved caspase-3 (CC3) were observed by the immunochemical analysis method in Example 1-3.

C4-2 cells [2] = assay: as above; conditions: for induction of apoptosis: 30 μM THA or 5 nM BI2536, 48 hours
Procedure: as §1, §2

PC3 cells [3] = assay: Real-time cell proliferation analysis (INCUCYTE ZOOM); conditions: THA 3, 10, 30 μM, BI2536 1-100 nM, PPG 3-100 μM, 68 hours
Procedure: (§3) LnCaP cells, PC3 cells which are androgen receptor (AR)-negative cells, and C4-2 cells showing castration resistance were cultured using an RPMI-1640 medium (Hyclone, Logan, Utah, USA) containing 10% fetal bovine serum (FBS) (Hyclone, Logan, Utah, USA) and 1% penicillin/streptomycin.
(§4) In order to measure cell proliferation, cells were plated onto a 96-well dish (5×10^3 cells/well). After treatment with a drug, the number of live cells was measured at 4-hour intervals using an INCUCYTE™ ZOOM Live Cell Analysis System (Essen Bioscience, Ann Arbor, Mich., USA).
(§5) In order to comparatively observe the cell proliferation inhibitory effects after treatment of prostate cancer cells with THA, a 1 M solution was prepared by diluting 0.168 g of THA (molecular weight: 168.15) with 1 ml DMSO. After the prostate cancer cell lines (LnCaP, PC3, and C4-2) cultured by the method in Example 1-2 were treated with THA (3, 10, and 30 μM), PLK1 inhibitor BI2536 (1, 5, 10, 50, and 100 nM), and purpurogallin (PPG) (3, 10, 30, and 100 μM), the cell proliferation inhibitory effects were comparatively observed by the real-time cell proliferation analysis method for 68 hours according to Example 1-4 during.

C4-2 cells [4] = assay: as above; conditions: THA 3, 10, 30 μM, BI2536 1-100 nM, PPG 3-100 μM, 68 hours
Procedure: as §3, §4, §5

PC3 cells [5] = assay: Cell cycle analysis (PI / PHH3 flow cytometry); conditions: 30 μM THA, 5 nM BI2536, 24 hours
Procedure: In order to measure the cell cycle distribution, cells were plated onto a 100 mm dish (5×10^5 cells/well). The cells were fixed with 4° C. PBS, refrigerated in 70% EtOH at 4° C., and cultured for 24 hours. After the 70% EtOH was removed, the PHH3 antibody was treated with a lysing solution composed of 1% bovine serum albumin/0.5% Triton X-100/0.2 mg/ml EDTA to a final concentration of 1:50, and then stained at 37° C. for 15 minutes. Thereafter, the lysing solution was removed, and staining was performed again at 37° C. for 15 minutes using propidium iodide (PI)/Triton X-100/DNAse-free RNAse A. Next, 20,000 cells per experimental group were analyzed using the FACSCALIBUR™ (flow cytometer from BD Biosciences, CA, USA) machine.
PLK1 is a representative G2/M cell cycle regulatory […], and in order to confirm the effect of blocking the cell cycle of prostate cancer cells according to the treatment with THA, the PC3 cells cultured by the method in Example 1-2 were plated onto a 6-well plate, and then 12 hours later, the cells were treated with 30 μM THA and 5 nM BI2536 for 24 hours. Thereafter, changes in the cell distribution of each of the sub-G1, S, and G2/M phases and the proportion of PH3-positive cells (M phase marker) were observed by the method in Example 1-6.

LnCaP cells = assay: Real-time cell proliferation analysis (INCUCYTE ZOOM); conditions: PPG 3-100 μM, 68 hours
Procedure: as §3, §4, §5

PC3 cells [6] = assay: Real-time apoptosis analysis (caspase-3/7 fluorescence substrate); conditions: 30 μM THA, 48 hours
Procedure: (§6) In order to measure apoptosis, cells were plated onto a 96-well dish (5×10^3 cells/well). The INCUCYTE™ ZOOM 96-well Caspase-3/7 apoptosis assay reagent (Essen Bioscience, Ann Arbor, Mich., USA) was pretreated for 3 hours, a drug was treated, and then the fluorescence expression level was measured at 4-hour intervals using an INCUCYTE™ ZOOM Live Cell Analysis System (Essen Bioscience, Ann Arbor, Mich., USA).

C4-2 cells [7] = assay: as above; conditions: 30 μM THA, 48 hours
Procedure: as §6

SMILES	induction of apoptosis (PC3 cells [1])	induction of apoptosis (C4-2 cells [2])	cell proliferation inhibitory effect (PC3 cells [3])	cell proliferation inhibitory effect (C4-2 cells [4])	PHH3-positive cells (M phase marker) compared to the control (PC3 cells [5])	cell cycle progression (PC3 cells [5])	cell proliferation inhibitory activity (LnCaP cells)	expression level of cleaved caspase-3 (PC3 cells [1]; 30 μM THA, 48 hours)	expression level of cleaved caspase-3 (C4-2 cells [2]; 30 μM THA, 48 hours)	apoptotic index (caspase-3/7 activity) (PC3 cells [6])	apoptotic index (caspase-3/7 activity) (C4-2 cells [7])
CC[C@@H]1C(=O)N(C)c2cnc(Nc3ccc(C(=O)NC4CCN(C)CC4)cc3OC)nc2N1C1CCCC1 [BI2536, reference compound]	apoptosis is effectively induced	apoptosis is effectively induced	selectively inhibits cell proliferation	selectively inhibits cell proliferation	a significant increase	inhibition of G2/M phase progression is induced					
O=c1c(O)cccc2cc(O)c(O)c(O)c12 [Purpurogallin, purpurogallin, reference compound]			limited cell proliferation inhibitory activity	a cell growth inhibitory effect that appeared to be non-selective only at a concentration of 100 uM			limited cell proliferation inhibitory activity				
CC(=O)c1c(O)cc(O)cc1O [THA, 2,4,6-trihydroxyacetophenone]	apoptosis is effectively induced	apoptosis is effectively induced	the same cell proliferation inhibitory effects as BI2536; also recorded: selectively inhibits cell proliferation	the same cell proliferation inhibitory effects as BI2536; also recorded: selectively inhibits cell proliferation	a significant increase	selectively blocked cell cycle progression at the G2/M phase		increased	increased	significantly increased the apoptotic index	significantly increased the apoptotic index
